From PubChem BioAssay AID1347040 (Sanford-Burnham Center for Chemical Genomics, 2019)
Calls of active or inactive are those of the source.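 How the source made its calls: active means IC50 at or below 20 µM (some results past the limit were not filed as active); inactive means the rest.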

These molecules were tested against Fatty acid synthase (Homo sapiens) (UniProt P49327) (assay: FAS thioesterase domain inhibitors, dose response, biochemical, fluorescence intensity, OMFH substrate (AID 1347040)). Conditions: recombinant FAS-TE, OMFH fluorogenic substrate.
Chain of Fatty acid synthase (Homo sapiens) (P49327 whole entry, looked up, the tested form may be a part): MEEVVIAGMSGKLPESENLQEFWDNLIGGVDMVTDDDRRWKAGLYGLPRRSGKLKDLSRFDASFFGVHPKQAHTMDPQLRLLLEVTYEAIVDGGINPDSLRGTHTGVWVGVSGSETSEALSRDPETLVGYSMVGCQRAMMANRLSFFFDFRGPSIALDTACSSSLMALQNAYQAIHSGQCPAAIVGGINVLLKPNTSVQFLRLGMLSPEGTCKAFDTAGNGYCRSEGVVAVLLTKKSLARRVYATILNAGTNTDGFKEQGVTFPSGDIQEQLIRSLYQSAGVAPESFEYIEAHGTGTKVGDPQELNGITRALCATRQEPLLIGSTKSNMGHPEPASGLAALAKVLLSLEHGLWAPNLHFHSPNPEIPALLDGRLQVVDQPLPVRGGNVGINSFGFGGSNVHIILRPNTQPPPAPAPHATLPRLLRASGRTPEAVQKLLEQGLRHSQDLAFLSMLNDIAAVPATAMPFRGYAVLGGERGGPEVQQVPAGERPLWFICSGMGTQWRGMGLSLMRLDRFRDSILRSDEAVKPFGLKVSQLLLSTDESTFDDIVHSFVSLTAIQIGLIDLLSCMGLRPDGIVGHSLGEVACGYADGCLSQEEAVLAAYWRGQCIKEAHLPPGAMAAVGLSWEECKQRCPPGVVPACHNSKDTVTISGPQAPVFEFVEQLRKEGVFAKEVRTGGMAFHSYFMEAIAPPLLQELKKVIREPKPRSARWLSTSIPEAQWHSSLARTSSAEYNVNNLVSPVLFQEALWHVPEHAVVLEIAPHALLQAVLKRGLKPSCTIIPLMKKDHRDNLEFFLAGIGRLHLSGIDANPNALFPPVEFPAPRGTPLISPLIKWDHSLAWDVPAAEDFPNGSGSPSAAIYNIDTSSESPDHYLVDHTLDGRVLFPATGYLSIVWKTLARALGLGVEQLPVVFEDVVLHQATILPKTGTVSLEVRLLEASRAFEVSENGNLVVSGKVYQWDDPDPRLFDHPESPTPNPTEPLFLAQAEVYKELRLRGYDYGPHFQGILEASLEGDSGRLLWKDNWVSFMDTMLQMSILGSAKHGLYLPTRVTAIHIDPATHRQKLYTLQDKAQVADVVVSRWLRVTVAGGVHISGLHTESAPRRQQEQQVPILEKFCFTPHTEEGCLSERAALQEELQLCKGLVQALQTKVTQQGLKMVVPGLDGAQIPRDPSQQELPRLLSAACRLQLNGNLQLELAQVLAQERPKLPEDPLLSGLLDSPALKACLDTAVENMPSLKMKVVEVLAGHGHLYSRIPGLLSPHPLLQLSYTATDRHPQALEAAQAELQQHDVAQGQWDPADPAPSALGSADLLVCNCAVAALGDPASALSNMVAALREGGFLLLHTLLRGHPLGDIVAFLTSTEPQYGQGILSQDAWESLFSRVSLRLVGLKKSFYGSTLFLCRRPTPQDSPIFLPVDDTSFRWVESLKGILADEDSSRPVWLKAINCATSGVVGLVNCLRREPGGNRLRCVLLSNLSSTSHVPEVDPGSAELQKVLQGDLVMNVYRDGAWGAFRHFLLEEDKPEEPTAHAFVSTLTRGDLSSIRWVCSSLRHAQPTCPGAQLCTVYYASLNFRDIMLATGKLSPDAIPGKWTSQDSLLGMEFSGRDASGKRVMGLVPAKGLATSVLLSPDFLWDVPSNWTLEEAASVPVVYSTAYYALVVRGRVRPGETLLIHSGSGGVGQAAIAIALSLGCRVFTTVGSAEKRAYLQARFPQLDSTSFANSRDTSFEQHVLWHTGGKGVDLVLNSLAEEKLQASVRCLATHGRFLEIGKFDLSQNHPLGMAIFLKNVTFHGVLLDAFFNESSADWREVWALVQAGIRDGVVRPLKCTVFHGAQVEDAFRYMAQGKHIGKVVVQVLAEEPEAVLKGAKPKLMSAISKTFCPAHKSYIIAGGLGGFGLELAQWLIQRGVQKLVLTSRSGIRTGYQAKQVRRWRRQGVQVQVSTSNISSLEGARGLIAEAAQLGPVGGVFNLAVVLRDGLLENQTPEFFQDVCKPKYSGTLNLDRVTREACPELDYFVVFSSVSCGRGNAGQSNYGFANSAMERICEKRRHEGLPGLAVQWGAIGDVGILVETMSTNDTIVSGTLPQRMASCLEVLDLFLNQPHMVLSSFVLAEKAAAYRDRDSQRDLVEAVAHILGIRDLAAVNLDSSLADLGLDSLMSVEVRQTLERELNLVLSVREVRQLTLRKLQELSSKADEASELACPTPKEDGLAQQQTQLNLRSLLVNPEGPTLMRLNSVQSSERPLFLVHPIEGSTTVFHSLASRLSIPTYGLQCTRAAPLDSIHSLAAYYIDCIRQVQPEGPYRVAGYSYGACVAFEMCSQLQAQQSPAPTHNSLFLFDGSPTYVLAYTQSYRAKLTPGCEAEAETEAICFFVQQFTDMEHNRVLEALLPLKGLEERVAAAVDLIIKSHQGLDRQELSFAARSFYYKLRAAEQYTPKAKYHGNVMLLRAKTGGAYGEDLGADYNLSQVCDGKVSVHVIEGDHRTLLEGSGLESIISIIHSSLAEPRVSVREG

IC50	Structure (SMILES)
8.69 µM	CCN(CC)S(=O)(=O)c1ccc(-c2csc(Cc3cccc(I)c3)n2)cc1
17.2 µM	CCN(CC)S(=O)(=O)c1ccc(-c2csc(-c3ccc(Br)cc3C)n2)cc1
5.04 µM	CCN(CC)S(=O)(=O)c1ccc(-c2csc(-c3cccc(Br)c3)n2)cc1
0.631 µM	CCN(CC)S(=O)(=O)c1ccc(-c2csc(Cc3ccccc3F)n2)cc1
5.38 µM	CCN(CC)S(=O)(=O)c1ccc(-c2csc(Cc3ccccc3OC)n2)cc1
2.6 µM	CCN(CC)S(=O)(=O)c1ccc(-c2csc(C(C)(C)C)n2)cc1
> 30 µM (inactive)	O=C(Cc1ccc(S(=O)(=O)N2CCOCC2)s1)N1CCN(S(=O)(=O)Cc2ccccc2)CC1
inactive	O=C(Cc1ccc(S(=O)(=O)N2CCOCC2)s1)N1CCN(S(=O)(=O)c2ccc(F)cc2)CC1
51.7 µM	CCc1nc(-c2ccc(S(=O)(=O)N(CC)CC)cc2)cs1
44.6 µM	O=C(Cc1ccc(S(=O)(=O)N2CCOCC2)s1)N1CCN(S(=O)(=O)c2ccccc2)CC1
0.291 µM	O=S(=O)(c1ccc(-c2csc(-c3ccc(F)cc3)n2)cc1)N1CCOCC1
33.2 µM	Cc1cc(C)c(S(=O)(=O)N2CCN(C(=O)Cc3ccc(S(=O)(=O)N4CCOCC4)s3)CC2)c(C)c1
5.8 µM	CC(C)c1nc(-c2ccc(S(=O)(=O)N3CCOCC3)cc2)cs1
14.3 µM	CC(C)(C)c1ccc(CNC(=O)Cc2ccc(S(=O)(=O)N3CCOCC3)s2)cc1
1.17 µM	CCN(CC)S(=O)(=O)c1ccc(-c2csc(Cc3cccc(F)c3)n2)cc1
> 30 µM (inactive)	CC(C)S(=O)(=O)N1CCN(C(=O)Cc2ccc(S(=O)(=O)N3CCOCC3)s2)CC1
0.5 µM	CCN(CC)S(=O)(=O)c1ccc(-c2csc(-c3ccc(F)cc3)n2)cc1
10 µM	CCN(CC)S(=O)(=O)c1ccc(-c2csc(-c3ccc(Br)cc3)n2)cc1
> 30 µM (inactive)	O=C(Cc1ccc(S(=O)(=O)N2CCOCC2)s1)NCc1ccccc1
5.28 µM	CCN(CC)S(=O)(=O)c1ccc(-c2csc(C(c3ccccc3)c3ccccc3)n2)cc1
4.2 µM	CCN(CC)S(=O)(=O)c1ccc(-c2csc(C(C)C)n2)cc1
10 µM	CCN(CC)S(=O)(=O)c1ccc(-c2csc(-c3ccc(Cl)cc3)n2)cc1
> 30 µM (inactive)	CS(=O)(=O)N1CCN(C(=O)Cc2ccc(S(=O)(=O)N3CCOCC3)s2)CC1
0.918 µM	CCN(CC)S(=O)(=O)c1ccc(-c2csc(Cc3ccc(F)cc3)n2)cc1
3.26 µM	CCN(CC)S(=O)(=O)c1ccc(-c2csc(Cc3cccc(C(F)(F)F)c3)n2)cc1
